Measured values published in patent US10696651B2, “Heterocyclic compound” (Takeda Pharmaceutical Company Limited, priority 2016, dated 2020).
Where a name gives a salt, the structure may show the parent alone. Read-outs that look alike come from different tables or passages of the source.

How the values were obtained:
[1] = target: T1, human GCN2 full-length protein (Homo sapiens, UniProt Q9P2K8); test: GCN2 enzyme inhibition assay (LanthaScreen TR-FRET); assay type: biochemical; details: GCN2 enzyme inhibitory activity at compound concentration of 3 μM, read-out: inhibitory rate
T1 construct: purchased Carna Biosciences, Inc
T1 sequence (Q9P2K8 whole entry): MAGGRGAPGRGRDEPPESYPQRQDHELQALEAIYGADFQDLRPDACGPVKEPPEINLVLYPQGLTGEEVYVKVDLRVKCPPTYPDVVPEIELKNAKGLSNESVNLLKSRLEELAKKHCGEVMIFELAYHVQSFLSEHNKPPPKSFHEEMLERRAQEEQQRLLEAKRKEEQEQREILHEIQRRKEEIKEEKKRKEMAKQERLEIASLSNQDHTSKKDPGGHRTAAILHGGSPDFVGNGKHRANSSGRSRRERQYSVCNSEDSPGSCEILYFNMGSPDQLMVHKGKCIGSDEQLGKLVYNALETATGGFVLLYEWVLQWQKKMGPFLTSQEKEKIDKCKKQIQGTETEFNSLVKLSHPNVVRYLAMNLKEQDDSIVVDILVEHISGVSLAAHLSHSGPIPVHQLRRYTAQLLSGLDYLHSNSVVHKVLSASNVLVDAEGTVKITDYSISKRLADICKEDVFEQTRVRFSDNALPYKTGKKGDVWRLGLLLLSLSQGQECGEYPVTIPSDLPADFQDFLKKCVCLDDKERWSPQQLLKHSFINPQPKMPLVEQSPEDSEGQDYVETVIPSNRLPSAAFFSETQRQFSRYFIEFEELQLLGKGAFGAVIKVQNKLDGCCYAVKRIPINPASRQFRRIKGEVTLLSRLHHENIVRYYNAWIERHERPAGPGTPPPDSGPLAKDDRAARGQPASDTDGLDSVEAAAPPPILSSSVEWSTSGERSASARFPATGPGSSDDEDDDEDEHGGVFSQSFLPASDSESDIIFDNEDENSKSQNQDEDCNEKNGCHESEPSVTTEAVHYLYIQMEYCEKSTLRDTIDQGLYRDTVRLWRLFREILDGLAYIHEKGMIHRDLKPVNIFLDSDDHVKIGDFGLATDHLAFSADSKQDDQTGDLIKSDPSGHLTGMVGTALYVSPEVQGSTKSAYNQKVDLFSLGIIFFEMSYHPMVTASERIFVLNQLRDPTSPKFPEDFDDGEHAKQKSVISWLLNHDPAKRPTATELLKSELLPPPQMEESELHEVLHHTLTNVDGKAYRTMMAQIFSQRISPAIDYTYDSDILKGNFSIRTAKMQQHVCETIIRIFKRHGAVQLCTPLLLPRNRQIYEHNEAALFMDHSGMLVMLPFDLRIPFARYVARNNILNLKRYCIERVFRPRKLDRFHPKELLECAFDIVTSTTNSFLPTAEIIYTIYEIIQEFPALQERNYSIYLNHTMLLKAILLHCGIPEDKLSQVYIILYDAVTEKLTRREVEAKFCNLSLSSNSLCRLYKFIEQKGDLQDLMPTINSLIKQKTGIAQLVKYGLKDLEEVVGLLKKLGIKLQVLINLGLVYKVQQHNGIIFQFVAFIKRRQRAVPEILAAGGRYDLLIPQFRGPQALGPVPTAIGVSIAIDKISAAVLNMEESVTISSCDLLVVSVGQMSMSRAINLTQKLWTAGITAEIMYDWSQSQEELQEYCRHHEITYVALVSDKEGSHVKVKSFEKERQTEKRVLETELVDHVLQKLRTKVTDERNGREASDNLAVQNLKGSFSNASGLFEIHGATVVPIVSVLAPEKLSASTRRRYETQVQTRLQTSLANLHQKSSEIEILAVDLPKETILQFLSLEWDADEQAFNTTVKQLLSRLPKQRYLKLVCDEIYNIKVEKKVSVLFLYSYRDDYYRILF
Experimental: GCN2 enzyme was preserved at -70° C. and used. The GCN2 enzyme inhibitory activity of the test compound was measured by the LanthaScreenTR-FRET (Time Resolved Fluorescence Resonance Energy Transfer) method (manufactured by ThermoFisher). […] Then, GCN2 enzyme solution diluted with the assay buffer was added by 2 μL to each well. The enzyme solution was not added to a part of the wells to give a control group. After incubation at room temperature for 1 hr, 570 μM ATP solution containing 390 nM […] physiological protein substrate (ThermoFisher) was added by 2 μL. After reaction at room temperature for 1 hr, TR-FRET Dilution Buffer (ThermoFisher) containing 4 nM Terbium-labeled anti-elF2alpha [[…]] antibody (ThermoFisher) dissolved therein was added by 2 μL to each well. After standing at room temperature for 1 hr, time decomposition fluorescence measurement was performed on platereader Envision (manufactured by PerkinElmer).

[2] = tested on: osteosarcoma cell line U-2-OS; test: In vitro cell proliferation inhibition assay (CellTiter-Glo, low amino acid media); assay type: cell-based; details: McCoy's 5A low amino acid media; for inhibition at 0.1 µM: Homo sapiens, U2OS, 72 h, cell proliferation inhibitory rate; for inhibitory rate: 72 hr
Experimental: A cell suspension (40 μL) (1000 cells/well) of osteosarcoma cell line U-2-OS obtained from ATCC (American Type Culture Collection) was seeded on a 384 plate using McCoy's 5A low amino acid media (amino acid content 25%). The seeded cells were incubated (37° C., 5% CO2) overnight to 24 hr at the longest. Each example compound was dissolved (10 mM) in DMSO, delivered to wells by using TECAN HP D300 (TECAN), and the plate was incubated for 72 hr (37° C., 5% CO2). A well without addition of compound was treated similarly as a control group. Celltiter-Glo (registered trade mark) Luminescent Cell Viability Assay reagent (Promega KK) equilibrated at room temperature was added (40 μL/well) to cells in each well before compound treatment (untreated group) and 72 hours after compound treatment. After incubation for 10 min, cell proliferation inhibitory rate was measured by the amount of ATP which is a cell viability marker. Luminescence of cells showing ATP amount was measured using ARVO MX (PerkinElmer). Based on the luminescence values of the untreatment group, the control group without addition of Example compound solution, and the treatment group with addition of Example compound, the cell proliferation inhibitory rate (%) of the test compound at a compound concentration of 100 nM was calculated by the following formula and the results thereof are shown in Tables 4-1, 4-2. Inhibitory rate (%)=(1−(luminescence value of treatment group−luminescence value of untreatment group)÷(luminescence value of control group−luminescence value of untreatment group))×100

Row | SMILES | inhibition at 3 µM ([1]; Table 3-1) [%] | inhibition at 0.1 µM ([2]; Table 4-1) [%] | also measured
1 | O=S(=O)(Nc1ccc(F)c(C#Cc2cnc3[nH]ncc3c2)c1F)c1cc(Cl)cc(CO)c1Cl [Example 1, 2,5-dichloro-N-(2,4-difluoro-3-(1H-pyrazolo[3,4-b]pyridin-5-ylethynyl)phenyl)-3-(hydroxymethyl)benzenesulfonamide] | 100 | 66 | –
2 | Cc1ncc(Cl)cc1S(=O)(=O)Nc1ccc(F)c(C#Cc2cnc3[nH]ncc3c2)c1F [Example 2, 5-chloro-N-(2,4-difluoro-3-(1H-pyrazolo[3,4-b]pyridin-5-ylethynyl)phenyl)-2-methylpyridine-3-sulfonamide] | 100 | 92 | –
3 | COc1ncc(Cl)cc1S(=O)(=O)Nc1ccc(F)c(C#Cc2cnc3[nH]ncc3c2)c1F [Example 5, 5-chloro-N-(2,4-difluoro-3-(1H-pyrazolo[3,4-b]pyridin-5-ylethynyl)phenyl)-2-methoxypyridine-3-sulfonamide] | 99 | 91 | –
4 | O=S(=O)(Nc1ccc(F)c(C#Cc2cnc3[nH]ncc3c2)c1F)c1cc(Cl)cc2c1OCC2 [Example 8, 5-chloro-N-(2,4-difluoro-3-(1H-pyrazolo[3,4-b]pyridin-5-ylethynyl)phenyl)-2,3-dihydro-1-benzofuran-7-sulfonamide] | 100 | 78 | –
5 | Nc1ncc(C#Cc2c(F)ccc(NS(=O)(=O)c3cc(Cl)ccc3Cl)c2F)cn1 [Example 13, N-(3-((2-aminopyrimidin-5-yl)ethynyl)-2,4-difluorophenyl)-2,5-dichlorobenzenesulfonamide TFA Salt] | – | 70 | –
6 | Nc1ncc(C#Cc2c(F)ccc(NS(=O)(=O)c3cc(Cl)ccc3Cl)c2F)cn1 [Example 17, N-(3-((2-aminopyrimidin-5-yl)ethynyl)-2,4-difluorophenyl)-2,5-dichlorobenzenesulfonamide] | 99 | – | inhibitory rate ([2]; Table 4-1): 73%
7 | COc1c(CO)cc(Cl)cc1S(=O)(=O)Nc1ccc(F)c(C#Cc2cnc(N)c(C)n2)c1F [Example 131, N-(3-((5-amino-6-methylpyrazin-2-yl)ethynyl)-2,4-difluorophenyl)-5-chloro-3-(hydroxymethyl)-2-methoxybenzenesulfonamide] | – | – | inhibition at 3 µM ([1]; Table 3-2): 99%
8 | Nc1ncc(C#Cc2c(F)ccc(NS(=O)(=O)c3cc(Cl)cnc3C(F)(F)F)c2F)cn1 [Example 136, N-(3-((2-aminopyrimidin-5-yl)ethynyl)-2,4-difluorophenyl)-5-chloro-2-(trifluoromethyl)pyridine-3-sulfonamide] | – | – | inhibition at 3 µM ([1]; Table 3-2): 99%
9 | COc1c(CO)cc(Cl)cc1S(=O)(=O)Nc1ccc(F)c(C#Cc2cnc(NCC3(O)CC3)nc2)c1F [Example 154, 5-chloro-N-(2,4-difluoro-3-((2-(((1-hydroxycyclopropyl)methyl)amino)pyrimidin-5-yl)ethynyl)phenyl)-3-(hydroxymethyl)-2-methoxybenzenesulfonamide] | – | – | inhibition at 0.1 µM ([2]; Table 4-2): 70%
10 | C[C@H](CO)Nc1ncc(C#Cc2c(F)ccc(NS(=O)(=O)c3cc(Cl)cc4c3OCC4O)c2F)cn1 (stereo partly drawn) [Example 187, 5-chloro-N-(2,4-difluoro-3-((2-(((2R)-1-hydroxypropan-2-yl)amino)pyrimidin-5-yl)ethynyl)phenyl)-3-hydroxy-2,3-dihydro-1-benzofuran-7-sulfonamide] | – | – | inhibitory rate ([2]; Table 4-2): 64%
11 | Cn1ncc2c(S(=O)(=O)Nc3ccc(F)c(C#Cc4cnc(N)nc4)c3F)cc(Cl)cc21 [Example 192, N-(3-((2-aminopyrimidin-5-yl)ethynyl)-2,4-difluorophenyl)-6-chloro-1-methyl-1H-indazole-4-sulfonamide] | – | – | inhibition at 0.1 µM ([2]; Table 4-2): 43%

The next lines start with results.

Row | inhibition at 3 µM ([1]; Table 3-1) [%] | SMILES | inhibition at 0.1 µM ([2]; Table 4-1) [%] | also measured
12 | 99 | O=S(=O)(Nc1ccc(F)c(C#Cc2cnc3[nH]ncc3c2)c1F)c1cc(Cl)ccc1Cl [Example 10, 2,5-dichloro-N-(2,4-difluoro-3-(1H-pyrazolo[3,4-b]pyridin-5-ylethynyl)phenyl)benzenesulfonamide TFA Salt] | – | inhibitory rate ([2]; Table 4-1, TFA Salt): 63%
13 | 100 | Cc1ccc(Cl)cc1S(=O)(=O)Nc1ccc(F)c(C#Cc2cnc3[nH]ncc3c2)c1F [Example 15, 5-chloro-N-(2,4-difluoro-3-(1H-pyrazolo[3,4-b]pyridin-5-ylethynyl)phenyl)-2-methylbenzenesulfonamide] | 75 | –
14 | 100 | Cc1cc(Br)cc(S(=O)(=O)Nc2ccc(F)c(C#Cc3cnc4[nH]ncc4c3)c2F)c1 [Example 18, 3-bromo-N-(2,4-difluoro-3-(1H-pyrazolo[3,4-b]pyridin-5-ylethynyl)phenyl)-5-methylbenzenesulfonamide] | 63 | –
15 | 98 | Cc1ccc(Cl)cc1S(=O)(=O)Nc1ccc(F)c(C#Cc2cnc(N)nc2)c1F [Example 19, N-(3-((2-aminopyrimidin-5-yl)ethynyl)-2,4-difluorophenyl)-5-chloro-2-methylbenzenesulfonamide] | 87 | –
16 | 100 | O=S(=O)(Nc1ccc(F)c(C#Cc2cnc3[nH]ncc3c2)c1F)c1cc(Cl)cc(Cl)c1Cl [Example 20, 2,3,5-trichloro-N-(2,4-difluoro-3-(1H-pyrazolo[3,4-b]pyridin-5-ylethynyl)phenyl)benzenesulfonamide] | 63 | –
17 | 100 | O=S(=O)(Nc1ccc(F)c(C#Cc2cnc3[nH]ncc3c2)c1F)c1c(Cl)c(Cl)cc(Cl)c1Cl [Example 23, 2,3,5,6-tetrachloro-N-(2,4-difluoro-3-(1H-pyrazolo[3,4-b]pyridin-5-ylethynyl)phenyl)benzenesulfonamide] | 72 | –
18 | 99 | O=S(=O)(Nc1ccc(F)c(C#Cc2cnc3[nH]ncc3c2)c1F)c1cc(Br)ccc1F [Example 24, 5-bromo-N-(2,4-difluoro-3-(1H-pyrazolo[3,4-b]pyridin-5-ylethynyl)phenyl)-2-fluorobenzenesulfonamide TFA Salt] | 37 | –
19 | 99 | O=S(=O)(Nc1ccc(F)c(C#Cc2cnc3[nH]ncc3c2)c1F)c1cc(Cl)cc(Cl)c1 [Example 25, 3,5-dichloro-N-(2,4-difluoro-3-(1H-pyrazolo[3,4-b]pyridin-5-ylethynyl)phenyl)benzenesulfonamide] | 44 | –
20 | 100 | COc1ncc(Cl)cc1S(=O)(=O)Nc1cccc(C#Cc2cnc(N)nc2)c1F [Example 123, N-(3-((2-aminopyrimidin-5-yl)ethynyl)-2-fluorophenyl)-5-chloro-2-methoxypyridine-3-sulfonamide] | – | –
21 | 100 | COc1ncc(Cl)cc1S(=O)(=O)Nc1ccc(Cl)c(C#Cc2cnc(N)nc2)c1F [Example 124, N-(3-((2-aminopyrimidin-5-yl)ethynyl)-4-chloro-2-fluorophenyl)-5-chloro-2-methoxypyridine-3-sulfonamide] | – | –
22 | 100 | COc1ncc(Cl)cc1S(=O)(=O)Nc1ccc(F)c(C#Cc2cnc(N)nc2)c1Cl [Example 125, N-(3-((2-aminopyrimidin-5-yl)ethynyl)-2-chloro-4-fluorophenyl)-5-chloro-2-methoxypyridine-3-sulfonamide] | – | –
23 | 100 | COc1ncc(Cl)cc1S(=O)(=O)Nc1cccc(C#Cc2cnc(N)nc2)c1Cl [Example 126, N-(3-((2-aminopyrimidin-5-yl)ethynyl)-2-chlorophenyl)-5-chloro-2-methoxypyridine-3-sulfonamide] | – | –
